Measured values taken from patent US20160297833A1, “THIENOPYRIMIDINES AS MKNK1 AND MKNK2 INHIBITORS” (BAYER PHARMA AKTIENGESELLSCHAFT, priority 2013, published 2016).
pIC50: −log10 of the molar value.

The compounds below were run against T1, human full-length MKNK1 (Homo sapiens, UniProt Q9BUB5, T385D) (assay: MKNK1 kinase high ATP assay (TR-FRET)). Conditions: Table 1; MKNK1 kinase high ATP assay, 2 mM ATP; read-out: MKNK1 IC50.
T1 construct: GST (N); purchased Carna Biosciences 02-145; host or cells: insect cells (baculovirus expression system)
T1 sequence (Q9BUB5 1-424 isoform Q9BUB5-2 T344D): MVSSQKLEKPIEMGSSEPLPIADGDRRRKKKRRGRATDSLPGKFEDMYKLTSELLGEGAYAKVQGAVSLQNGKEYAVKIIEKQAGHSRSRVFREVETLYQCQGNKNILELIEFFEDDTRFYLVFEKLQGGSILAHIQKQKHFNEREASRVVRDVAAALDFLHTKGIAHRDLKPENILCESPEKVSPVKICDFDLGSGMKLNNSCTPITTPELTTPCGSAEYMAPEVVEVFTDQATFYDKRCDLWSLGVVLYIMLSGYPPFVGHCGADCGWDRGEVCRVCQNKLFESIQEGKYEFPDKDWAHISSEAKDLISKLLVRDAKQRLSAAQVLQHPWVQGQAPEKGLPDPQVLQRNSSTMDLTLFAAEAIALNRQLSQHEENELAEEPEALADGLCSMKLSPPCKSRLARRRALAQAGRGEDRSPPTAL
Type: biochemical
Method: MKNK1 Kinase High ATP Assay
MKNK1-inhibitory activity at high ATP of compounds of the present invention after their preincubation with MKNK1 was quantified employing the TR-FRET-based MKNK1 high ATP assay as described in the following paragraphs.
As substrate for the kinase reaction the biotinylated peptide biotin-Ahx-[…] (C-terminus in amide form) was used, which can be purchased e.g. from the company Biosyntan (Berlin-Buch, Germany).
For the assay 50 nL of a 100 fold concentrated solution of the test compound in DMSO was pipetted into a black low volume 384 well microtiter plate (Greiner Bio-One, Frickenhausen, Germany), 2 μL of a solution of MKNK1 in aqueous assay buffer [50 mM HEPES pH 7.5, 5 mM MgCl2, 1.0 mM dithiothreitol, 0.005% (v/v) Nonidet-P40 (Sigma)] was added and the mixture was incubated for 15 min at 22° C. to allow pre-binding of the test compounds to the enzyme before the start of the kinase reaction. Then the kinase reaction was started by the addition of 3 μL of a solution of adenosine-tri-phosphate (ATP, 3.3 mM=>final conc. in the 5 μL assay volume is 2 mM) and substrate (0.1 μM=>final conc. in the 5 μL assay volume is 0.06 μM) in assay buffer and the resulting mixture was incubated for a reaction time of 30 min at 22° C. The concentration of MKNK1 was adjusted depending of the activity of the enzyme lot and was chosen appropriate to have the assay in the linear range, typical concentrations were in the range of 0.003 μg/mL. The reaction was stopped by the addition of 5 μL of a solution of TR-FRET detection reagents (5 nM streptavidine-XL665 [Cisbio Bioassays, Codolet, France] and 1 nM anti-ribosomal protein S6 (pSer236)-antibody from Invitrogen [#44921G] and 1 nM LANCE EU-W1024 labeled ProteinG [Perkin-Elmer, product no. AD0071]) in an aqueous EDTA-solution (100 mM EDTA, 0.1% (w/v) bovine serum albumin in 50 mM HEPES pH 7.5).
The resulting mixture was incubated for 1 h at 22° C. to allow the formation of complex between the phosphorylated biotinylated peptide and the detection reagents. Subsequently the amount of phosphorylated substrate was evaluated by measurement of the resonance energy transfer from the Eu-chelate to the streptavidine-XL. Therefore, the fluorescence emissions at 620 nm and 665 nm after excitation at 350 nm were measured in a TR-FRET reader, e.g. a Rubystar (BMG Labtechnologies, Offenburg, Germany) or a Viewlux (Perkin-Elmer). The ratio of the emissions at 665 nm and at 622 nm was taken as the measure for the amount of phosphorylated substrate.
For `COc1cc2[nH]ncc2cc1Nc1ncnc2sc3c(c12)CC[C@H](C(=O)N1CCCC(F)C1)C3` (mixture of isomers) [Example 205, [(3RS)-3-fluoropiperidin-1-yl]{(7S)-4-[(6-methoxy-1H-indazol-5-yl)amino]-5,6,7,8-tetrahydro[1]benzothieno[2,3-d]pyrimidin-7-yl}methanone], the pIC50 was 9.30. `CN(C)C(=O)[C@H]1CCc2c(sc3ncnc(Nc4ccc5[nH]ncc5c4)c23)C1` [Example 1, (7S)-4-(1H-Indazol-5-ylamino)-N,N-dimethyl-5,6,7,8-tetrahydro[1]benzothieno[2,3-d]pyrimidine-7-carboxamide] showed a pIC50 of 7.84. `CN(C)C(=O)[C@@H]1CCc2c(sc3ncnc(Nc4ccc5[nH]ncc5c4)c23)C1` [Example 2, (7R)-4-(1H-Indazol-5-ylamino)-N,N-dimethyl-5,6,7,8-tetrahydro[1]benzothieno[2,3-d]pyrimidine-7-carboxamide] was tested, and the pIC50 was 6.93. `O=C([C@H]1CCc2c(sc3ncnc(Nc4ccc5[nH]ncc5c4)c23)C1)N1CCC1` [Example 3, Azetidin-1-yl[(7S)-4-(1H-indazol-5-ylamino)-5,6,7,8-tetrahydro[1]benzothieno[2,3-d]pyrimidin-7-yl]methanone] showed a pIC50 of 7.96. For `CCN(C)C(=O)[C@H]1CCc2c(sc3ncnc(Nc4ccc5[nH]ncc5c4)c23)C1` [Example 4, (7S)—N-Ethyl-4-(1H-indazol-5-ylamino)-N-methyl-5,6,7,8-tetrahydro[1]benzothieno[2,3-d]pyrimidine-7-carboxamide], the pIC50 was 8.46. In the case of `CN(CC(F)(F)F)C(=O)[C@H]1CCc2c(sc3ncnc(Nc4ccc5[nH]ncc5c4)c23)C1` [Example 5, (7S)-4-(1H-Indazol-5-ylamino)-N-methyl-N-(2,2,2-trifluoroethyl)-5,6,7,8-tetrahydro[1]benzothieno[2,3-d]pyrimidine-7-carboxamide], the pIC50 was 7.74. With `CN(CCC(F)(F)F)C(=O)[C@H]1CCc2c(sc3ncnc(Nc4ccc5[nH]ncc5c4)c23)C1` [Example 6, (7S)-4-(1H-Indazol-5-ylamino)-N-methyl-N-(3,3,3-trifluoropropyl)-5,6,7,8-tetrahydro[1]benzothieno[2,3-d]pyrimidine-7-carboxamide] the pIC50 was 7.96. In the case of `CC(C)N(C)C(=O)[C@H]1CCc2c(sc3ncnc(Nc4ccc5[nH]ncc5c4)c23)C1` [Example 7, (7S)-4-(1H-Indazol-5-ylamino)-N-methyl-N-(propan-2-yl)-5,6,7,8-tetrahydro[1]benzothieno[2,3-d]pyrimidine-7-carboxamide], the pIC50 was 8.22. In the case of `CCN(C(=O)[C@H]1CCc2c(sc3ncnc(Nc4ccc5[nH]ncc5c4)c23)C1)C(C)C` [Example 8, (7S)—N-Ethyl-4-(1H-indazol-5-ylamino)-N-(propan-2-yl)-5,6,7,8-tetrahydro[1]benzothieno[2,3-d]pyrimidine-7-carboxamide], the pIC50 was 8.08. `O=C([C@H]1CCc2c(sc3ncnc(Nc4ccc5[nH]ncc5c4)c23)C1)N1CCOCC1` [Example 9, [(7S)-4-(1H-Indazol-5-ylamino)-5,6,7,8-tetrahydro[1]benzothieno[2,3-d]pyrimidin-7-yl](morpholin-4-yl)methanone] showed a pIC50 of 7.59. For `O=C([C@H]1CCc2c(sc3ncnc(Nc4ccc5[nH]ncc5c4)c23)C1)N1C[C@@H]2C[C@H]1CO2` [Example 10, [(7S)-4-(1H-Indazol-5-ylamino)-5,6,7,8-tetrahydro[1]benzothieno[2,3-d]pyrimidin-7-yl][(1S,4S)-2-oxa-5-azabicyclo[2.2.1]hept-5-yl]methanone], the pIC50 was 7.95. Compound `O=C([C@H]1CCc2c(sc3ncnc(Nc4ccc5[nH]ncc5c4)c23)C1)N1C[C@H]2C[C@@H]1CO2` [Example 11, [(7S)-4-(1H-Indazol-5-ylamino)-5,6,7,8-tetrahydro[I]benzothieno[2,3-d]pyrimidin-7-yl][(1R,4R)-2-oxa-5-azabicyclo[2.2.1]hept-5-yl]methanone] has a pIC50 of 8.40. Compound `O=C([C@H]1CCc2c(sc3ncnc(Nc4ccc5[nH]ncc5c4)c23)C1)N1CC2(COC2)C1` [Example 12, [(7S)-4-(1H-Indazol-5-ylamino)-5,6,7,8-tetrahydro[1]benzothieno[2,3-d]pyrimidin-7-yl](2-oxa-6-azaspiro[3.3]hept-6-yl)methanone] has a pIC50 of 7.64. Work on `COCCN(C)C(=O)[C@H]1CCc2c(sc3ncnc(Nc4ccc5[nH]ncc5c4)c23)C1` [Example 13, (7S)-4-(1H-Indazol-5-ylamino)-N-(2-methoxyethyl)-N-methyl-5,6,7,8-tetrahydro[1]benzothieno[2,3-d]pyrimidine-7-carboxamide] yielded a pIC50 of 8.49. For `CN1CCN(C(=O)[C@H]2CCc3c(sc4ncnc(Nc5ccc6[nH]ncc6c5)c34)C2)CC1` [Example 14, [(7S)-4-(1H-Indazol-5-ylamino)-5,6,7,8-tetrahydro[I]benzothieno[2,3-d]pyrimidin-7-yl](4-methylpiperazin-1-yl)methanone], the pIC50 was 8.26. Compound `CN1CCN(C(=O)[C@@H]2CCc3c(sc4ncnc(Nc5ccc6[nH]ncc6c5)c34)C2)CC1` [Example 15, [(7R)-4-(1H-Indazol-5-ylamino)-5,6,7,8-tetrahydro[1]benzothieno[2,3-d]pyrimidin-7-yl](4-methylpiperazin-1-yl)methanone] has a pIC50 of 7.05. `COCCN(CCOC)C(=O)[C@H]1CCc2c(sc3ncnc(Nc4ccc5[nH]ncc5c4)c23)C1` [Example 16, (7S)-4-(1H-Indazol-5-ylamino)-N,N-bis(2-methoxyethyl)-5,6,7,8-tetrahydro[1]benzothieno[2,3-d]pyrimidine-7-carboxamide] was tested, and the pIC50 was 8.62. For `CC1(O)CN(C(=O)[C@H]2CCc3c(sc4ncnc(Nc5ccc6[nH]ncc6c5)c34)C2)C1` [Example 17, (3-Hydroxy-3-methylazetidin-1-yl)[(7S)-4-(1H-indazol-5-ylamino)-5,6,7,8-tetrahydro[1]benzothieno[2,3-d]pyrimidin-7-yl]methanone], the pIC50 was 8.03. With `CN(CC(C)(C)O)C(=O)[C@H]1CCc2c(sc3ncnc(Nc4ccc5[nH]ncc5c4)c23)C1` [Example 18, (7S)—N-(2-Hydroxy-2-methylpropyl)-4-(1H-indazol-5-ylamino)-N-methyl-5,6,7,8-tetrahydro[1]benzothieno[2,3-d]pyrimidine-7-carboxamide] the pIC50 was 8.41. For `CCN(CCO)C(=O)[C@H]1CCc2c(sc3ncnc(Nc4ccc5[nH]ncc5c4)c23)C1` [Example 19, (7S)—N-Ethyl-N-(2-hydroxyethyl)-4-(1H-indazol-5-ylamino)-5,6,7,8-tetrahydro[1]benzothieno[2,3-d]pyrimidine-7-carboxamide], the pIC50 was 8.60. `COc1cc2[nH]ncc2cc1Nc1ncnc2sc3c(c12)CC[C@H](C(=O)N(C)C)C3` [Example 20, (7S)-4-[(6-Methoxy-1H-indazol-5-yl)amino]-N,N-dimethyl-5,6,7,8-tetrahydro[1]benzothieno[2,3-d]pyrimidine-7-carboxamide] was tested, and the pIC50 was 9.00. `COc1cc2[nH]ncc2cc1Nc1ncnc2sc3c(c12)CC[C@H](C(=O)N1CCC1)C3` [Example 21, Azetidin-1-yl{(7S)-4-[(6-methoxy-1H-indazol-5-yl)amino]-5,6,7,8-tetrahydro[1]benzothieno[2,3-d]pyrimidin-7-yl}methanone] showed a pIC50 of 9.40.

Same assay, conditions: Table 2; ratio of the IC50-value of an R-enantiomer and its corresponding S-enantiomer
With `CN(C)C(=O)[C@H]1CCc2c(sc3ncnc(Nc4ccc5[nH]ncc5c4)c23)C1` [Example 1, (7S)-4-(1H-Indazol-5-ylamino)-N,N-dimethyl-5,6,7,8-tetrahydro[1]benzothieno[2,3-d]pyrimidine-7-carboxamide] the “Activity-Ratio MKNK1” value was 8.3. For `CN1CCN(C(=O)[C@H]2CCc3c(sc4ncnc(Nc5ccc6[nH]ncc6c5)c34)C2)CC1` [Example 14, [(7S)-4-(1H-Indazol-5-ylamino)-5,6,7,8-tetrahydro[I]benzothieno[2,3-d]pyrimidin-7-yl](4-methylpiperazin-1-yl)methanone], the “Activity-Ratio MKNK1” value was 16.1. In the case of `COc1cc2[nH]ncc2cc1Nc1ncnc2sc3c(c12)CC[C@H](C(=O)N1CCC1)C3` [Example 21, Azetidin-1-yl{(7S)-4-[(6-methoxy-1H-indazol-5-yl)amino]-5,6,7,8-tetrahydro[1]benzothieno[2,3-d]pyrimidin-7-yl}methanone], the “Activity-Ratio MKNK1” value was 53.1.
